Reference: patent US7993884B2, “Beta-xylosidase for conversion of plant cell wall carbohydrates to simple sugars” (The United States of America as represented by the …, priority 2006, dated 2011)
Where “and” joins values, the source holds several entries; their conditions need not be identical. Equal values may be shown once. Entries after “also recorded” stand apart in the source; their conditions may differ. Read-outs that look alike come from different tables or passages of the source.

Columns and labels:
[1] = molecular target: T1, Selenomonas ruminantium GA192 β-D-xylosidase (SXA), wild type, SEQ ID NO: 2 (Pseudoselenomonas ruminantium, UniProt O52575); assay: Steady-state kinetics of SXA with 4NP-glycosides (Example 1, Methods A and B)
Experimental: Kinetics with 4NP Substrates
(§1) Two methods were employed for determining initial rates. […] Initial rates were calculated from fitting the absorbance readings versus time to a line (minimum of 4 points per reaction progression) and by using an extinction coefficient of 17.4 mM^−1 cm^−1. In Method B (continuous monitoring), temperature-equilibrated reactions (1 mL) were monitored at 380 nm (for pH values below 6) or 400 nm (for pH values of 6 and above). Reactions were generally monitored 0.3 min for initial rate determinations. Delta extinction coefficients (product-substrate) used for molar conversion were determined by subtracting the absorbance of substrate (at pH 5 so even very minor contaminating 4NP would not contribute) from the absorbance of 4NP for each reaction condition. […] The concentration of 4NP substrates was determined by incubating the substrate with excess enzyme until an end point was reached, adding an aliquot (0.01 to 0.1 mL) to 0.1 M NaOH, recording the absorbance at 400 nm and using the extinction coefficient of 18.3 cm^−1mM^−1. Unless indicated otherwise, for both Methods A and B, reactions were initiated by adding a small aliquot of enzyme (generally 7 μl of enzyme diluted into 10 mM sodium phosphate, pH 7.0, and incubated on wet ice or at ˜25° C.) to the 1-mL, temperature-equilibrated (25° C.) reaction mixtures. For pH studies, buffers of constant ionic strength (I=0.3 M), adjusted with NaCl, were used as indicated: 100 mM succinate-NaOH (pH 4.3-6), 100 mM sodium phosphate (pH 6-8), 30 mM sodium pyrophosphate (pH 8-9), glycine-NaOH (pH 9) and glycylglycine-NaOH (pH 9).

[2] = molecular target: T1, Selenomonas ruminantium GA192 β-D-xylosidase (SXA), wild type, SEQ ID NO: 2; assay: Steady-state kinetics of SXA with 4NPX2, A2 and X2-X6 by HPLC (Example 1)
Experimental: (§2) Samples (25 μL) were injected onto the column equilibrated with 0.1 M NaOH and developed with a 15-min linear gradient (0.1 M NaOH to 15 mM sodium acetate) at ˜25° C. and a flow rate of 1 mL min^−1.
(§3) Before (time=0 min) and after (time=1-6 min) initiating reactions with enzyme (7 μL), samples (0.05-0.1 mL) were removed and quenched with an equal volume of 0.5 M acetic acid and frozen. Following lyophilization, samples were dissolved in H2O and analyzed by HPLC. […] Results from two replicate reactions were combined to provide data points for the progress curves.
(§4) Before and after addition of enzyme (7 μL), 25-μl aliquots of the reaction mixtures were directly injected onto the HPLC column for quantification of product L-arabinose.
(§5) Quenched samples were analyzed by HPLC for D-xylose. Initial rates were determined from linear regressions of [D-xylose] produced versus reaction time. […] Four 1-mL replicate reactions were conducted to supply data points for the progress curves. Two parallel reactions were conducted, under the same conditions with the same reaction components, the absorbance at 400 nm was continuously monitored (20 min) for 4NP production, and the absorbance values were converted to mM 4NP concentrations by using a delta extinction coefficient (product-substrate) of 8.22 mM^−1 cm^−1.

SXA [3] = molecular target: T2, SXA (Selenomonas ruminantium, UniProt O52575); conditions: pH 5.3 and 25° C., relative to A2
Experimental: as §2, §3, §4

SXA [4] = molecular target: T2, SXA; assay: biochemical; conditions: for Km: read-out: Km^4NPA, pH 5.3, 25° C.; for Ki: Ki^D-xylose, inhibition of SXA-catalyzed hydrolysis of 4NPA
[5] = molecular target: Selenomonas ruminantium GA192 β-D-xylosidase (SXA, parent SEQ ID NO: 2) variant E186A (Pseudoselenomonas ruminantium, UniProt O52575, E186A); assay: Steady-state kinetics of SXA mutant E186A with 4NP substrates
Experimental: (§6) Site-directed mutagenesis was performed using the QuikChange site-directed mutagenesis kit (Stratagene) according the manufacturer's instructions. […] Complete sequences were determined on a 3700 sequencer (Applied Biosystems) using T7 promoter and specific primers to confirm that only the intended mutations had been introduced. Lasergene software (DNAStar) was used to analyze the sequence data. pSRA1 and its mutated plasmids were used for the transformation of E. coli BL21(DE3). Transformants were inoculated to 50 mL Luria-Bertani (LB) broth supplemented with 50 mg ampicillin/mL and the flask was shaken overnight at 250 rpm and 37° C. Twenty mL of the overnight culture were transferred to a 2.8-liter baffled flask containing 1.0 liter SOB medium [2.0% tryptone, 0.5% yeast extract, 0.05% NaCl, 0.0186% KCl (all in wt/vol) and 10 mM MgSO4] supplemented with 50 mg ampicillin/mL. The culture was shaken at 250 rpm and 37° C. […] Cells were harvested by centrifugation and cell pellets were stored at −80° C. until use.
(§7) Initial purification steps and diafiltration steps were performed at 4° C. Chromatography was at room temperature (˜24° C.). Cells were thawed, suspended in 40 mL of 50 mM Tris-HCl, pH 7.5 (Buffer A) containing Complete protease inhibitor cocktail (Roche) and disrupted by sonication. Following centrifugation, the supernatant was brought to 30% saturation with respect to ammonium sulfate and centrifuged. […] The column was washed until absorbance at 280 nm of the eluate became minimal (˜200 mL) and developed with a 500-mL linear gradient (Buffer A+30% saturated ammonium sulfate to Buffer A).
(§8) Two methods were employed for determining initial rates. […] Initial rates were calculated from fitting the absorbance readings versus time to a line (minimum of 4 points per reaction progression) and by using an extinction coefficient of 17.4 mM^−1 cm^−1. […] The concentration of 4NP substrates was determined by incubating the substrate with excess enzyme until an end point was reached, adding an aliquot (0.01 to 0.1 mL) to 0.1 M NaOH, recording the absorbance at 400 nm and using the extinction coefficient of 18.3 cm^−1mM^−1. Unless indicated otherwise, for both Methods A and B, reactions were initiated by adding a small aliquot of enzyme (generally 7 μl of enzyme diluted into 10 mM sodium phosphate, pH 7.0, and incubated on wet ice or at ˜25° C.) to the 1-mL, temperature-equilibrated (25° C.) reaction mixtures. For pH studies, buffers of constant ionic strength (I=0.3 M), adjusted with NaCl, were used as indicated: 100 mM succinate-NaOH (pH 4.3-6), 100 mM sodium phosphate (pH 6-8), 30 mM sodium pyrophosphate (pH 8-9), glycine-NaOH (pH 9) and glycylglycine-NaOH (pH 9).

SXA [6] = molecular target: T2, SXA; assay: SXA-catalyzed hydrolysis of 4NP-glycoside substrates, initial rates (Methods A and B);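 for all read-outs here: initial rates from 4-nitrophenol release, tracked by absorbance over roughly 0.3 min and converted using product-minus-substrate extinction differences, in 1 mL mixtures started by enzyme addition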; assay type: biochemical; conditions: for Km / kcat Rel. to η/ηo = 1: Exper. 2: MES pH 6.00, Method B
Experimental: as §1

[7] = molecular target: Selenomonas ruminantium GA192 β-D-xylosidase (SXA, parent SEQ ID NO: 2) variant D14A (Pseudoselenomonas ruminantium, UniProt O52575, D14A); assay: Steady-state kinetics of SXA mutant D14A with 4NP substrates
Experimental: as §6, §7, §8

SXA [8] = molecular target: T2, SXA; conditions: 100 mM sodium phosphate, pH 7.0, 25° C., not well determined
Experimental: as §2, §5

[9] = molecular target: β-D-xylosidase/α-L-arabinofuranosidase (Selenomonas ruminantium, UniProt O52575); assay: Inhibition of the enzyme by monosaccharides and ethanol (detailed description); assay type: biochemical, Selenomonas ruminantium GA192
SXA [10] = molecular target: T2, SXA; conditions: pH 5.3, 55° C.; for KI (inactivation): read-out: Ki, dissociation constant from protection against thermal inactivation, kobs fitted to equation 4
Experimental: Initial rates were determined by monitoring reactions continuously at 400 nM for 0.3 min. […] Relative activity remaining data were fitted to equation 3, which describes a first order decay: A is the relative activity remaining at varied times of preincubation, A0 is the relative activity remaining at time zero of the preincubation, kobs is the first order rate constant, and t is the time of preincubation. Apparent affinities for D-xylose and D-glucose were determined by fitting kobs values from the monosaccharide protection studies to equation 4 where kobs is the observed first order rate constant for the decay, k0 is the first order rate constant in the absence of ligand (e.g., D-xylose), I is the ligand concentration in the preincubation mixture, and Ki is the dissociation constant of ligand from the enzyme-ligand complex.
Ligand protection studies contained varied concentrations of D-xylose or D-glucose in the pH 5.3 preincubation buffer at 55° C.

SXA [11] = molecular target: T2, SXA; assay: biochemical; conditions: inhibition of SXA-catalyzed hydrolysis of 4NPX, I=0.3 M, competitive
Experimental: Reactions were monitored continuously for 0.3 min at 400 nm to determine initial rates. Initial-rate data were fitted to equation 6, where v is the initial rate, kcat is the rate of the reaction when saturated with substrate, S is the substrate concentration, Km is the Michaelis constant, I is the inhibitor concentration (e.g., D-glucose), and Ki is the dissociation constant of inhibitor from the enzyme-inhibitor complex.

SXA [12] = molecular target: T2, SXA; assay: pH stability of SXA and protection from low pH inactivation at pH 4.0 by monosaccharides; conditions: pH 4.0, 25° C.
Experimental: Buffers of constant ionic strength (I=0.3 M), adjusted with NaCl, were used as indicated: 100 mM succinate-NaOH (pH 3.5-6), 100 mM sodium phosphate (pH 6-8), 30 mM sodium pyrophosphate (pH 8-9), and 100 mM glycine-NaOH (pH 9-10). […] Initial rates were determined by monitoring reactions continuously at 400 nM for 0.3 min. […] Relative activity remaining data were fitted to equation 3, which describes a first order decay: A is the relative activity remaining at varied times of preincubation, A0 is the relative activity remaining at time zero of the preincubation, kobs is the first order rate constant, and t is the time of preincubation. Apparent affinities for D-xylose and D-glucose were determined by fitting kobs values from the monosaccharide protection studies to equation 4 where kobs is the observed first order rate constant for the decay, k0 is the first order rate constant in the absence of ligand (e.g., D-xylose), I is the ligand concentration in the preincubation mixture, and Ki is the dissociation constant of ligand from the enzyme-ligand complex.

SXA [13] = molecular target: T2, SXA; assay: biochemical; conditions: pH 5.3, 25° C.
[14] = 100 mM succinate-NaOH, pH 5.3, 25° C, Method A
[15] = I=0.3 M, 25° C., Eq. 7 (4NPX), Eq. 5 (4NPA)

SMILES: O=[N+]([O-])c1ccc(O[C@@H]2O[C@@H](CO)[C@H](O)[C@H]2O)cc1 [4NPA, 4-nitrophenyl-α-L-arabinofuranoside]
- kcat ([1]; 100 mM MES-NaOH, pH 6.00, 25° C, Method B, 50% sucrose, η/ηo 6.85): 2.87 ± 0.12 s⁻¹
- kcat ([1]; 100 mM MES-NaOH, pH 6.00, 25° C, Method B, η/ηo 1.00): 2.99 ± 0.05 s⁻¹
- kcat ([1]; 100 mM succinate-NaOH, pH 5.3, 25° C, Method A, no sucrose): 2.68 ± 0.06 s⁻¹
- affinity of dianionic SXA (D14^−E186^−), higher than that of monoanionic SXA (D14^−E186^H) ([1]; from pH dependence of 1/Km): no affinity
- kcat Rel. to η/ηo = 1 ([1]; pH 6.00, η/ηo 6.85): 0.960 ± 0.040
- kcat factor between 4NPA and A2 ([2]; 4NPA larger / A2 reduced): 36 fold
- relative kcat value ([2]; pH 5.3, 25° C, A2 = 1): 34
- relative kcat values (SXA [3]): 34
- Km (SXA [4]; FIG. 22A experiment (D-xylose α:β 6:1)): 880 ± 130 µM
- Km (SXA [4]; FIG. 22B experiment (D-xylose α:β 1:2.5)): 900 ± 13 µM
- kcat [5, 14]: 0.000239 ± 0.000008 s⁻¹
- factor by which kcat is degraded vs wild type ([5]; pH 5.3, 25° C.): 11000
- pH-independent kcat/Km (SXA [6]): 5.10±0.07 s^−1 mM^−1
- Relative Rate (SXA [6]; 5 mM 4NP glycoside, 100 mM succinate-NaOH, pH 5.3, 25° C., Method A, initial rate relative to 4NPX): 0.101 ± 0.003
- pH-independent 1/Km (SXA [6]; 1/Km versus pH, Eq. 4 (4NPX), Eq. 5 (4NPA)): 1.60±0.02 mM^−1
- Km (SXA [6]; η/ηo 1.00): 745 ± 36 µM
- kcat Rel. to η/ηo = 1 (SXA [6]; η/ηo 1.00): 1.00
- Km (SXA [6]; η/ηo 6.85 (50% sucrose)): 754 ± 101 µM
- kcat Rel. to η/ηo = 1 (SXA [6]; η/ηo 6.85 (50% sucrose)): 0.960 ± 0.040
- pKa of kcat versus pH (single group) (SXA [6]; I=0.3 M, 25° C., Eq. 4): 3.6 and 3.64±0.10
- pKa1 of kcat/Km versus pH (SXA [6]; I=0.3 M, 25° C., Eq. 5): ~5.0 and 5.06±0.02
- pKa2 of kcat/Km versus pH (SXA [6]; I=0.3 M, 25° C., Eq. 5): 7.20±0.02
- pKa1 of 1/Km versus pH (SXA [6]; [15]): 5.00±0.03
- pKa2 of 1/Km versus pH (SXA [6]; [15]): 7.16±0.03
- binding to dianionic SXA (D14^−E186^−) (SXA [6]; from pH dependencies): weakly, if at all; also recorded: no affinity
- kcat [7, 14]: 0.000936 ± 0.000012 s⁻¹
- factor by which kcat is degraded vs wild type ([7]; pH 5.3, 25° C.): 3000

SMILES: O=[N+]([O-])c1ccc(O[C@@H]2OC[C@@H](O[C@@H]3OC[C@@H](O)[C@H](O)[C@H]3O)[C@H](O)[C@H]2O)cc1 [4NPX2, 4-Nitrophenyl-β-D-xylobioside]
- kcat (4NPX2 to 4NPX + D-xylose) (SXA [8]): 50.5 ± 25.7 s⁻¹
- Km (SXA [8]; read-out: Km (4NPX2 to 4NPX + D-xylose)): 690 ± 430 µM

SMILES: O=C[C@H](O)[C@@H](O)[C@H](O)[C@H](O)CO [D-glucose]
- Ki [9]: 27 ± 0.4 mM
- kobs of SXA inactivation in presence of monosaccharide (SXA [10]; 93.5 mM): 0.00949 ± 0.00069 min⁻¹
- kobs of SXA inactivation in presence of monosaccharide (SXA [10]; 187 mM): 0.00588 ± 0.00077 min⁻¹
- kobs of SXA inactivation in presence of monosaccharide (SXA [10]; 280 mM): 0.00445 ± 0.00081 min⁻¹
- kobs of SXA inactivation in presence of monosaccharide (SXA [10]; 374 mM): 0.00336 ± 0.00095 min⁻¹
- KI (inactivation) (SXA [10]): 56.1 ± 0.8 mM
- Ki (SXA [11]; pH 5.3, 25° C.): 79 ± 2.3 mM
- Ki (SXA [11]; pH 7.0, 25° C.): 34.5 ± 0.7 mM
- Ki (SXA [11]; pH 9.0, 25° C.): 18.7 ± 0.6 mM
- kobs of SXA inactivation in presence of monosaccharide (SXA [12]; 234 mM): 0.0210 ± 0.0016 min⁻¹
- kobs of SXA inactivation in presence of monosaccharide (SXA [12]; 467 mM): 0.0124 ± 0.0007 min⁻¹

SMILES: O=C[C@H](O)[C@@H](O)[C@H](O)CO [D-xylose]
- Ki ([9]; read-out: Ki): 4.2 ± 0.1 mM
- kobs of SXA inactivation in presence of monosaccharide (SXA [10]; 18.7 mM): 0.0132 ± 0.0010 min⁻¹
- kobs of SXA inactivation in presence of monosaccharide (SXA [10]; 46.7 mM): 0.00649 ± 0.00087 min⁻¹
- kobs of SXA inactivation in presence of monosaccharide (SXA [10]; 93.5 mM): 0.00326 ± 0.00056 min⁻¹
- kobs of SXA inactivation in presence of monosaccharide (SXA [10]; 280 mM): 0.000917 ± 0.00033 min⁻¹
- KI (inactivation) (SXA [10]): 17.6 ± 1.8 mM
- Ki (SXA [4]; D-xylose α:β 1:2.5, pH 7.0 (100 mM sodium phosphate, I=0.3 M), 25° C.): 5.15 ± 0.08 mM
- Ki (SXA [4]; D-xylose α:β 6:1, pH 7.0 (100 mM sodium phosphate, I=0.3 M), 25° C.): 4.97 ± 0.05 mM
- Ki (SXA [4]; D-xylose α:β ratio of 1:2.5, pH 5.3, 25° C., competitive): 11.8 ± 0.3 mM
- Ki (SXA [4]; D-xylose α:β ratio of 6:1, pH 5.3, 25° C., competitive): 11.9 ± 0.3 mM
- Ki (SXA [11]; pH 4.3, 25° C.): 43.5 ± 1.1 mM
- Ki (SXA [11]; pH 5.3, 25° C.): 7.62 ± 0.26 mM
- Ki (SXA [11]; pH 7.0, 25° C.): 3.82 ± 0.06 mM
- Ki (SXA [11]; pH 9.0, 25° C.): 3.21 ± 0.14 mM
- Ki (SXA [13]; Ki^D-xylose, inhibition of SXA-catalyzed hydrolysis of 4NPX, Eq. 3 noncompetitive (mixed), D-xylose α:β 1:2.5): 9.63 ± 0.3 mM
- Ki (SXA [13]; Kis^D-xylose·4NPX, Eq. 3): 15.9 ± 2.1 mM
- kobs of SXA inactivation in presence of monosaccharide (SXA [12]; 46.7 mM): 0.0335 ± 0.0008 min⁻¹
- kobs of SXA inactivation in presence of monosaccharide (SXA [12]; 93.5 mM): 0.0186 ± 0.0004 min⁻¹
- kobs of SXA inactivation in presence of monosaccharide (SXA [12]; 280 mM): 0.00614 ± 0.00036 min⁻¹
- KI (inactivation) (SXA [12]; read-out: Ki, dissociation constant from protection against low pH inactivation, kobs fitted to equation 4): 31.7 ± 2.8 mM
- Ki (SXA [6]; read-out: Ki(xylose)): 7.4 mM

SMILES: O=C[C@H](O)[C@@H](O)[C@@H](O)CO [L-arabinose]
- Ki ([9]; read-out: Ki): 20 ± 0.5 mM
